Laboratory results: publication PMC13289030, “Qualification of the human Reconstructed Intestine Micronuclei Cytome assay for site-of-contact genotoxic hazard identification” (NAM journal, 2025)
Values after ≈ are worked out from the molar mass of the structure shown. “Also recorded” adds a separate entry of the source. Where two headings read alike, the source gives them in different places. Where a SMILES comes first, the peptide text is derived from it.

Tests used:
[1] = published genotoxic profile; ref Kirkland et al., 2016; EFSA; cited from earlier work
[2] = test system: EpiIntestinal™ microtissues; assay: RICyt assay: micronuclei (MN) cytome scoring in EpiIntestinal microtissues after 10-day repeated apical exposure
[3] = cited from earlier work
[4] = test system: EpiIntestinal™ microtissues; assay: Cytotoxicity / relative cell count (RCC) of dissociated EpiIntestinal microtissues; conditions: for Cytotoxicity / cell viability (result in words) / Cytotoxicity: 10-day exposure; for Cytotoxicity / cell viability (result in words): tested doses
[5] = Test material solubility limit for top test concentration; type: physicochemical; conditions: for solubility: read-out: Concentration above which test material is insoluble (top test concentration)
[6] = test system: EpiIntestinal™ microtissues
topoisomerase II = test system: topoisomerase II; design: method as in Maralhas et al., 2006; conditions: ref Maralhas et al., 2006; cited from earlier work
[7] = test system: EpiIntestinal™ microtissues; remark: listed apart in the source
Caco-2 = conditions: ref Schrenk et al., 2022; cited from earlier work
[8] = test system: EpiIntestinal™ microtissues; conditions: cited from earlier work
[9] = 10-day exposure, relative to solvent control and historical negative control range (≤2.4 %)
[10] = 10-day exposure, positive = significant, dose-dependent %MN increase above historical negative range (>2.4 %)
[11] = published genotoxic profile, ref Kirkland et al., 2016, EFSA

Row | Compound | In vitro genotoxicity tests [1] | Karyorrhectic cells (cytome analysis) ([2]; 10-day exposure) | %MN induction (result in words) [2, 9] | In vivo genotoxicity tests [3, 11] | Cytotoxicity / cell viability (result in words) [4] | In vivo genotoxicity tests ([3]; in vivo) | further results
1 | O=Cc1ccc(CO)o1 [5-Hydroxymethyl furfural, 5-Hydroxymethylfurfural] | + Comet and SCE - for MN | increase in karyorrhectic cell population though not statistically significant | consistently low without exceeding the historical negative range | - MN | Cytotoxicity was observed with increasing doses |  | RICyt outcome (genotoxic classification) [2, 10]: Negative; RICyt outcome (genotoxic classification) ([2]; 10-day exposure, positive = significant, dose-dependent %MN increase above historical negative range (>2.4 %), listed as 5-HMF): clear negative
2 | COC(=O)[C@H](Cc1ccccc1)NC(=O)[C@@H](N)CC(=O)O [Aspartame] (H-Asp-Phe-OMe) | - CA and MN - SCE |  | did not produce significant %MN | - MN, comet and CA | did not produce significant %MN and cytotoxicity |  | RICyt outcome (genotoxic classification) [2, 10]: Negative; RICyt outcome (genotoxic classification) ([2]; 10-day exposure, positive = significant, dose-dependent %MN increase above historical negative range (>2.4 %), listed as aspartame): clear negative
3 | COc1cc(/C=C/C(=O)CC(=O)/C=C/c2ccc(O)c(OC)c2)ccc1O [Curcumin] |  | increase in karyorrhectic cells | no significant formation of MN |  |  |  | Cytotoxicity ([4]; at higher doses / top two concentrations): 15–20%; solubility ([5]; in solvent/culture media): 50 µg/mL (≈ 136 µM)
4 | CCOS(C)(=O)=O [Ethyl methanesulfonate] |  |  |  |  |  | + MN, comet and CA | Cytotoxicity / cell viability (result in words) [6]: no observable cytotoxicity
5 | C=CCc1ccc(O)c(OC)c1 [Eugenol] |  | consistent increase in karyorrhectic cell population |  |  | cytotoxicity observed in the tested doses | + MN only at very high doses. Equivocal | %MN induction (result in words) ([2]; 10-day exposure, relative to solvent control and historical negative control range (≤2.4 %), listed as EUG): very close to the established 95 % upper confident limits; RICyt outcome (genotoxic classification) [2, 10]: Equivocal; Genotoxicity in vivo ([3]; in vivo): genotoxic positive; Topoisomerase II activity (topoisomerase II): could inhibit topoisomerase II activity
6 | Nc1nc(N)nc(N)n1 [Melamine] |  |  | not significant and below the historical negative range |  | No genotoxicity nor cytotoxicity were detected |  | solubility ([5]; in solvent/culture media): 500 µg/mL (≈ 3960 µM)
7 | CC(C)=CCC/C(C)=C/CC/C(C)=C/CC/C(C)=C/CC/C(C)=C/CC/C(C)=C/CC/C(C)=C/CC1=C(C)C(=O)c2ccccc2C1=O [Menaquinone 7] |  |  | no significant MN induction |  | no significant MN induction nor cytotoxicity |  | Other nuclear anomalies (cytome analysis) ([2]; 10-day exposure): not detected; Concentration above which test material is insoluble (top test concentration) ([5]; in solvent/culture media): 1000 µg/mL
8 | C[C@H]1C(=O)O[C@@H]2CCN3CC=C(COC(=O)[C@](C)(O)[C@]1(C)O)[C@H]23 [Monocrotaline] |  |  |  |  |  | + DNA adduct, DNA crosslinking and MN | %MN increment ([7]; human): 2.53%; Cytotoxicity / cell viability (result in words) [6]: without obvious cytotoxicity; Gut permeability (Caco-2): moderate gut permeability
9 | CCN(N=O)C(N)=O [N-Ethyl-N-nitrosourea] | + MN, CA, MLA, HPRT mutations and UDS | non-significant increase in karyorrhectic cells | statistically significant increases in MN in a dose dependent manner | + CA, MN, comet |  |  | %MN induction (result in words) ([2]; 10-day exposure, relative to solvent control and historical negative control range (≤2.4 %), listed as ENU): positive induction of MN; Cytotoxicity ([4]; across tested concentrations (ENU up to 150 µg/ml; GA up to 25 µg/ml)): ≤ 15%
10 | CC(=O)O[C@H]1C(=O)[C@@]2(C)[C@H]([C@H](OC(=O)c3ccccc3)[C@]3(O)C[C@H](OC(=O)[C@H](O)[C@@H](NC(=O)c4ccccc4)c4ccccc4)C(C)=C1C3(C)C)[C@]1(OC(C)=O)CO[C@@H]1C[C@@H]2O [Paclitaxel] | + MN, polyploidy in a CA test and in MLA | non-significant but dose dependent increase in karyorrhectic cell population | statistically significant increase in %MN; also recorded: positive induction of MN | + MN in bone marrow and liver | decrease in cell viability at the top two exposed doses |  | RICyt outcome (genotoxic classification) [2, 10]: true positive
11 | c1ccc2c(c1)cc1ccc3cccc4ccc2c1c34 [benzo(a)pyrene] |  |  |  |  |  |  | MN induction / genotoxicity in RICyt platform [8]: genotoxicity was successfully detected
12 | CC(C)[C@@H]1CC[C@@H](C)C[C@H]1O [d,l-Menthol, D,L-MENTHOL] |  |  |  |  |  | - | %MN induction (result in words) [7]: low level of MN which fell within 95 % confident limit of the historical negative control; Cytotoxicity / cell viability (result in words) [6]: no significant impact on cell viability; Concentration above which test material is insoluble (top test concentration) [5]: 500 µg/mL
13 | CC[C@]1(O)C[C@@H]2CN(CCc3c([nH]c4ccccc34)[C@@](C(=O)OC)(c3cc4c(cc3OC)N(C)[C@H]3[C@@](O)(C(=O)OC)[C@H](OC(C)=O)[C@]5(CC)C=CCN6CC[C@]43[C@@H]65)C2)C1 [vinblastine] |  |  |  |  |  |  | MN induction / genotoxicity in RICyt platform ([8]; previous publication, ref Lim et al., 2022): positive induction of MN
14 | C/C=C\c1cc(OC)c(OC)cc1OC [β-asarone] | + MN, comet and SCE |  |  | MN negative |  |  | RICyt outcome (genotoxic classification) [7]: Negative; Cytotoxicity / cell viability (result in words) [6]: Increases in cytotoxicity at the top two doses
15 | Aflatoxin B1 |  |  |  |  |  | + MN, CA, UDS − comets | %MN induction (result in words) [2]: significant and dose-dependent formation of MN; RICyt outcome (genotoxic classification) [2]: genotoxicity was successfully detected; also recorded: Positive; Loss/reduction in cell viability [4]: ~40%
